Assay results: patent US7906518B2, “Therapeutic compounds” (CBT Development Limited, priority 2006, dated 2011)

How the values were obtained:
[1] = test system: streptozocin induced static allodynia; test: streptozocin-induced diabetic neuropathy, static allodynia (von Frey hairs); type: in vivo; conditions: rats
Method: Diabetes was induced by a single i.p. injection of 50 mg/kg streptozocin (Sigma, 50 mg/ml/kg in citrate buffered saline 33 mM pH 4.5). Control animals received single i.p. injection of citrate buffered saline.

adenosine A2A receptor = adenosine A2A receptor (Homo sapiens, UniProt P29274); test: EC50 at the adenosine A2A receptor; type: biochemical
Sequence of adenosine A2A receptor (P29274 whole entry): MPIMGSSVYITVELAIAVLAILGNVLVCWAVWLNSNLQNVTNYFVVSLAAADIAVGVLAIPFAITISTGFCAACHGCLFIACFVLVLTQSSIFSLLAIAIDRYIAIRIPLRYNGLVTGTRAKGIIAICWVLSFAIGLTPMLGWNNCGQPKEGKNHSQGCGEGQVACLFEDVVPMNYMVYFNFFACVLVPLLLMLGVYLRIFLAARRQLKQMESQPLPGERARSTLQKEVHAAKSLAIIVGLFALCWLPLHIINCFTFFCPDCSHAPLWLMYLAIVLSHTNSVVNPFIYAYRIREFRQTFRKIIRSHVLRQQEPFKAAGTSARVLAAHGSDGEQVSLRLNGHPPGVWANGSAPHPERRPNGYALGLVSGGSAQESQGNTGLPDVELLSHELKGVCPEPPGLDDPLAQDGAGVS

[2] = monkey, multiple oral dosing, 14C-labelled; cited from earlier work

| Structure (SMILES) | reversal of streptozocin induced static allodynia (PWT), all doses ([1]; 0.6-[…] po) | reversal of streptozocin induced static allodynia (PWT), top dose ([1]; top dose […] po) | EC50 (adenosine A2A receptor) | drug level in red blood cells compared to Ribavarin [2] | drug level in the liver compared to Ribavarin [2] |
| --- | --- | --- | --- | --- | --- |
| COc1nc(N)c2ncn([C@@H]3O[C@H](CO)[C@@H](O)[C@H]3O)c2n1 [Spongosine, 2-methoxyadenosine] | All doses were effective at reversing allodynia | fully reversed the allodynia | ~1 µM | – | – |
| N=C(N)c1ncn([C@@H]2O[C@H](CO)[C@@H](O)[C@H]2O)n1 [Viramidine] | – | – | – | only half in red blood cells | three times the drug level in the liver |
